Measurements as given in US5518735A, “Meta-substituted phenylalanine derivatives” (priority 1990, dated 1996).
Counter-ions that a name gives are not always drawn. Like-named read-outs stand apart in the source and are kept apart here. One block for each compound: values may come before it.

Assays:
[1] = molecular target: thrombin (Bos taurus, UniProt P00735); assay: Inhibition of thrombin (dissociation constant Ki); type: biochemical
[2] = molecular target: factor Xa (Bos taurus, UniProt P00743); assay: Inhibition of factor Xa (dissociation constant Ki); type: biochemical
[3] = molecular target: T1, plasmin (Homo sapiens, UniProt P00747); assay: Inhibition of plasmin (Ki); type: biochemical; settings: Table 26
T1 construct: trypsin and the related enzymes thrombin, plasmin, factor Xa, tPA

[4] = molecular target: T2, factor XIIa (Homo sapiens, UniProt P00748); assay: Inhibition of factor XIIa (Ki); type: biochemical; settings: Table 26
T2 construct: glandular kallikrein, factor XIIa and plasma kallikrein
T2 sequence (P00748 373-615 limits assumed): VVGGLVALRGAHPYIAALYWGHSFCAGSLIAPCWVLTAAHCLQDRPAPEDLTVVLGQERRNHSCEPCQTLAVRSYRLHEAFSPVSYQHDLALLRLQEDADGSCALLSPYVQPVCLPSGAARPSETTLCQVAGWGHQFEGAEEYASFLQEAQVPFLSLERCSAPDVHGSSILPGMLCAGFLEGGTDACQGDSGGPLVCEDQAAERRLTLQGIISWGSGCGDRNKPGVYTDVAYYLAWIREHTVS

[5] = molecular target: tPA (Homo sapiens, UniProt P00750); assay: Inhibition of tPA (Ki); type: biochemical; settings: Table 26
[6] = molecular target: glandular kallikrein (Sus scrofa, UniProt P00752); assay: Inhibition of glandular kallikrein (Ki); type: biochemical; settings: Table 26; read-out: Ki, Gland. Kallikrein
[7] = molecular target: T3, plasma kallikrein (Homo sapiens, UniProt P03952); assay: Inhibition of plasma kallikrein (Ki); type: biochemical; settings: Table 26
T3 construct: glandular kallikrein, factor XIIa and plasma kallikrein

[8] = in vivo; settings: mouse
[9] = Plasma concentration in rats after oral administration (HPLC); settings: rat
Description: (§1) For the pharmacokinetic characterization, the plasma concentration of selected derivatives was determined in rats after intravenous (i.v.), subcutaneous (s.c.) and peroral (p.o.) application according to the following three-step procedure:
(§2) 1. A physiological NaCl solution of the substance to be tested was submitted to high pressure liquid chromatography (HPLC) in order to determine its characteristic substance-specific retention time with the chosen test conditions.
(§3) 2. The substance to be tested was diluted in vitro in rat plasma. This solution was also submitted to HPLC to see whether the characteristic peak of the substance once again appeared at the substance-specific retention time.
(§4) 3. […] Blood samples were taken at time intervals of 15 minutes, from which plasma samples were prepared by centrifugation; those samples were also submitted to HPLC to see whether the characteristic peak of the substance appeared again at the substance-specific retention time.

[10] = Plasma concentration in rats after intravenous administration (HPLC); settings: rat, plasma, iv, 1 mg/kg
Description: as §1, §2, §3, §4

[11] = Plasma concentration in rats after subcutaneous administration (HPLC); settings: rat, plasma, sc, 5 mg/kg
Description: as §1, §2, §3, §4

[12] = Tables 19-25, read-out: Ki, Factor Xa

tPA, sequence (P00750 36-562): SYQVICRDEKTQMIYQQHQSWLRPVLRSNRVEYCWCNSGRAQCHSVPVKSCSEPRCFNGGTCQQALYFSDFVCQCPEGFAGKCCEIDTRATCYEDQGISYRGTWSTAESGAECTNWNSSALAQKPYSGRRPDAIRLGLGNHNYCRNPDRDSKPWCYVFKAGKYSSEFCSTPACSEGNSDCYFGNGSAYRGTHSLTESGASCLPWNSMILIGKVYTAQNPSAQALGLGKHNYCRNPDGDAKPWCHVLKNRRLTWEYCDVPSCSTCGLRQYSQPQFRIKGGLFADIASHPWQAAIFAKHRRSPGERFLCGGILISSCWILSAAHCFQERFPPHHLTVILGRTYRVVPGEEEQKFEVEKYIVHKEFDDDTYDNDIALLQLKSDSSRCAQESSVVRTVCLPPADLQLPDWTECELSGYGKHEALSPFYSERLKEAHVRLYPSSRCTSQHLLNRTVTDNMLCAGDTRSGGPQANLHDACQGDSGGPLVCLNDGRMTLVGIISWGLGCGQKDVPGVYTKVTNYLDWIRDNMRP
factor Xa, sequence (P00743 234-492 limits assumed): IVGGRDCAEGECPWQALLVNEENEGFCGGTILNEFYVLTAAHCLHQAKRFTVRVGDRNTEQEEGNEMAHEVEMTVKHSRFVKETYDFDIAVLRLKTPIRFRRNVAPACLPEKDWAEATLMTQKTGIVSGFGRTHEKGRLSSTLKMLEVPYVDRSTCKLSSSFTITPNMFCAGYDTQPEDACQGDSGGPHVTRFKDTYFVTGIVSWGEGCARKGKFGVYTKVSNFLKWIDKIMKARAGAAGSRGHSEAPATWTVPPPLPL
factor Xa, sequence (P00743 41-180 partner limits assumed): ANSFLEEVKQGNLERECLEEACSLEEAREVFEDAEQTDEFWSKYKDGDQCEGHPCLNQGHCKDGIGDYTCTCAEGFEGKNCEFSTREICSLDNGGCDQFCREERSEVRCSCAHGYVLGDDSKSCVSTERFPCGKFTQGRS
glandular kallikrein, sequence (P00752 8-246): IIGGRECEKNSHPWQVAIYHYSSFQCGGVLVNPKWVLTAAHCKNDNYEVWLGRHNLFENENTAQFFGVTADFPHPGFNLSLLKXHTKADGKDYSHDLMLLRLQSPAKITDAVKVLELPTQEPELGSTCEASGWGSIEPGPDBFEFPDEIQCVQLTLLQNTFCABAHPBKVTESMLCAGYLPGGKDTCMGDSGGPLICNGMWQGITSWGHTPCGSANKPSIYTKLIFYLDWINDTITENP
T1 sequence (P00747 581-810 limits assumed): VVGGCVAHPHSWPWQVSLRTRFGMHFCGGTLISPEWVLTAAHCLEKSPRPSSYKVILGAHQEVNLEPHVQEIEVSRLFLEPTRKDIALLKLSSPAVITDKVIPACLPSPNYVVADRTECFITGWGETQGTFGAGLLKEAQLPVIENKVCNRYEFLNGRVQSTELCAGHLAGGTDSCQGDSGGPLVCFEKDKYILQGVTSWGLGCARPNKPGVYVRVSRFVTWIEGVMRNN
T1 sequence (P00747 97-580 partner limits assumed): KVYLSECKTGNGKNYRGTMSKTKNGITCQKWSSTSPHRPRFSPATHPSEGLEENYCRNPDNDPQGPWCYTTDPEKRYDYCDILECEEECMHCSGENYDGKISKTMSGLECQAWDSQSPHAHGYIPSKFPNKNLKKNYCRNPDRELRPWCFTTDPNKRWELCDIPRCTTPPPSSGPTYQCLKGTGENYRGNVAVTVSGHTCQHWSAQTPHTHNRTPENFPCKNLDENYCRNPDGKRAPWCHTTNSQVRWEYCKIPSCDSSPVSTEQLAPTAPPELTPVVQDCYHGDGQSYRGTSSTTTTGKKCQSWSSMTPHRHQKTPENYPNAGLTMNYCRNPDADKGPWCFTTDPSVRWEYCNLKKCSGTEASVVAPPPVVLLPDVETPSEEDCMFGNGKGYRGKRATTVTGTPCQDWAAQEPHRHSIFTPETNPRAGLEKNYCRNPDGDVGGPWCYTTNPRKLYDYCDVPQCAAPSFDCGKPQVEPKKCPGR
T3 sequence (P03952 391-638 limits assumed, species assumed): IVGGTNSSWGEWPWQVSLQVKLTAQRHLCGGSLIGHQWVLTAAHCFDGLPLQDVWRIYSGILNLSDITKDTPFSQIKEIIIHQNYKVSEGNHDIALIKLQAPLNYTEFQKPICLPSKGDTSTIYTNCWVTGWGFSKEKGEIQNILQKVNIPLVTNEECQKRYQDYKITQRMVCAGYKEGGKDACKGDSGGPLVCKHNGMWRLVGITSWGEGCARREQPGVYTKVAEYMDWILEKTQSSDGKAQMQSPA
T3 sequence (P03952 20-390 partner limits assumed, species assumed): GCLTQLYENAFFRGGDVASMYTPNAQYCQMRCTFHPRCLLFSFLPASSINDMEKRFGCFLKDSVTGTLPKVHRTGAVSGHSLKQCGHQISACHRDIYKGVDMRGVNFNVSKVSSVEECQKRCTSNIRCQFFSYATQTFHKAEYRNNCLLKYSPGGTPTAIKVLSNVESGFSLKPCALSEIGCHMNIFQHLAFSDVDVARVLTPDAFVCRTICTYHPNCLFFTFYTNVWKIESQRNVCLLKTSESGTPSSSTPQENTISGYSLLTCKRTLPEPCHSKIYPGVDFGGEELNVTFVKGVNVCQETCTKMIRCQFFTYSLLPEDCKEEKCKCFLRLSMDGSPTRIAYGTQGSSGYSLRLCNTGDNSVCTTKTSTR

SMILES: COC(=O)C(Cc1cccc(C(=N)N)c1)NS(=O)(=O)c1ccc2ccccc2c1 (racemic) [Compound 7]
Ki [1]: 0.28 µM
Ki [2, 12]: 2.5 µM
Ki [3]: 5.2 µM
Ki [4]: 190 µM
Ki [5]: 120 µM
Ki [6]: 210 µM
Ki [7]: 18 µM

SMILES: CC1CCCCN1C(=O)C(Cc1cccc(C(=N)N)c1)NS(=O)(=O)c1ccc2ccccc2c1 (racemic) [Compound 32]
Ki [1]: 0.13 µM
Ki [2, 12]: 74 µM

SMILES: CN1CCN(C(=O)C(Cc2cccc(C(=N)N)c2)NS(=O)(=O)c2ccc3ccccc3c2)CC1 (racemic) [Compound 35]
Ki [2]: 30 µM
Ki [3]: 31 µM
Ki [4]: > 1000 µM
Ki [5]: 430 µM
Ki [6]: > 1000 µM
Ki [7]: 85 µM

SMILES: N=C(N)c1cccc(CC(NS(=O)(=O)c2ccc3ccccc3c2)C(=O)N2CCC(C(=O)O)CC2)c1 (racemic) [Compound 85]
LD50 at 168 h ([8]; iv): 43 mg/kg
LD50 at 168 h ([8]; po): > 3000 mg/kg
Concentration in plasma ([9]; oral 100 mg/kg, 240 min): 0 ng/mL
concentration at 0.25 h ([9]; plasma, po, 100 mg/kg): 870 ng/mL
concentration at 0.5 h ([9]; plasma, po, 100 mg/kg): 541 ng/mL
concentration at 0.75 h ([9]; plasma, po, 100 mg/kg): 345 ng/mL
concentration at 1 h ([9]; plasma, po, 100 mg/kg): 120 ng/mL
concentration at 2 h ([9]; plasma, po, 100 mg/kg): 103 ng/mL
concentration at 3 h ([9]; plasma, po, 100 mg/kg): 104 ng/mL
concentration at 2 min [10]: 2350 ng/mL
concentration at 5 min [10]: 1240 ng/mL
concentration at 10 min [10]: 526 ng/mL
concentration at 0.25 h [10]: 334 ng/mL
concentration at 0.5 h [10]: 240 ng/mL
concentration at 0.75 h [10]: 176 ng/mL
concentration at 1 h [10]: 99 ng/mL
concentration at 1.5 h [10]: 52 ng/mL
concentration at 2 h [10]: 28 ng/mL
concentration at 4 h [10]: 14 ng/mL
concentration at 0.25 h [11]: 1330 ng/mL
concentration at 0.5 h [11]: 1030 ng/mL
concentration at 0.75 h [11]: 860 ng/mL
concentration at 1 h [11]: 834 ng/mL
concentration at 1.5 h [11]: 913 ng/mL
concentration at 2 h [11]: 977 ng/mL
concentration at 3 h [11]: 815 ng/mL
concentration at 4 h [11]: 676 ng/mL
concentration at 5 h [11]: 550 ng/mL

SMILES: COC(=O)C1CCCCN1C(=O)C(Cc1cccc(C(=N)N)c1)NS(=O)(=O)c1ccc2ccccc2c1 (racemic) [Compound 94]
Ki [1]: 0.07 µM
Ki [2, 12]: 46 µM
Ki [3]: 10.5 µM
Ki [4]: 500 µM
Ki [5]: 220 µM
Ki [6]: > 1000 µM
Ki [7]: 35 µM

SMILES: N=C(N)c1cccc(CC(NS(=O)(=O)c2ccc3ccccc3c2)C(=O)N2CCCCC2C(=O)NCC(=O)O)c1 (racemic) [Compound 116, N-α-(2-Naphthylsulfonyl)-3-amidino-(D,L)-phenylalanyl-(D,L)-pipecolyl-glycine hydrochloride]
Ki [1]: 1.3 µM
Ki [2, 12]: 110 µM

SMILES: COC(=O)CNC(=O)C1CCCCN1C(=O)C(Cc1cccc(C(=N)N)c1)NS(=O)(=O)c1ccc2ccccc2c1 (racemic) [Compound 117, N-α-(2-Naphthylsulfonyl-3-amidino-(D,L)-phenylalanyl-(D,L)-pipecolyl-glycine-methyl ester hydrochloride]
Ki [1]: 0.88 µM
Ki [2, 12]: 38 µM

SMILES: N=C(N)c1cccc(CC(NS(=O)(=O)c2ccc3ccccc3c2)C(=O)N2CC3CCCCC3CC2C(=O)O)c1 (racemic) [Compound 151, N-α-(2-Naphthylsulfonyl)-3-amidino-(D,L)-phenylalanyl-decahydroisoquinoline-3-carboxylic acid hydrochloride]
Ki [1]: 0.12 µM
Ki [2, 12]: 54 µM

Second part, the compound after the results:

Ki [1]: 61 µM
Ki [2, 12]: 48 µM
SMILES: N=C(N)c1cccc(CC(NC(=O)CNS(=O)(=O)c2ccc3ccccc3c2)C(=O)N2CCCCC2C(=O)O)c1 (racemic) [Compound 165]

Ki [1]: 46 µM
Ki [2, 12]: 97 µM
SMILES: N=C(N)c1cccc(CC(NC(=O)CNS(=O)(=O)c2ccc3ccccc3c2)C(=O)N2CCC(C(=O)O)CC2)c1 (racemic) [Compound 166]

Ki [1]: 0.34 µM
Ki [2, 12]: 180 µM
Ki [3]: 100 µM
Ki [4]: 780 µM
Ki [5]: > 1000 µM
Ki [6]: 260 µM
Ki [7]: > 1000 µM
SMILES: CC1CCN(C(=O)C(Cc2cccc(C(=N)N)c2)NS(=O)(=O)c2cccc3cccnc23)CC1 (racemic) [Compound 171, N-α-(8-quinolinesulfonyl)-3-amidino-(D,L)-phenylalanine-4-methylpiperidide hydroiodide]
